Data reported in PMC3225327 (Journal of Biomedical Science, 2011).

Test system: cytokines in bronchoalveolar lavage fluid
Assay: Cytokine levels in BALF of sensitized and challenged mice (CBA kits)
Format: in vivo, BABL/c mice
Method: According to the schedule (Figure 1), ten female BABL/c mice in each group were sensitized by an intraperitoneal (i.p.) injection of 20 μg of OVA emulsified in 2.25 mg of an aluminum hydroxide gel, prepared from aluminum sulfate hexadecahydrate, in a total volume of 100 μl on days 0 and 14. On day 21, these mice were injected with (i.p.) 100 μl of a mixture of 1% OVA and Freund's complete adjuvant (1:1). Mice were challenged via the airway using 1% OVA in saline for 30 min on days 28, 29, and 30 by ultrasonic nebulization. After the last of OVA challenges, AHR was assessed on day 32 (48 h after 1% OVA provocation) in each group. […] For comparison, sham-treated mice were challenged with saline instead of 1% OVA (non-challenged). […] AHR was assessed using two methods: (1) in anesthetized ventilated mice, AHR was assessed as previously described by measuring changes in the airway resistance (RL, cmH2O/ml/sec) and lung dynamic compliance (Cdyn, ml/cmH2O) after challenge with aerosolized methacholine (MCh, 0.78~25 mg/ml) using the FlexiVent system (SCIREQ, Montreal, Quebec, Canada). Anesthetized (urethane 600 mg/kg and chloralose 120 mg/kg, i.p.), tracheostomized (stainless-steel cannula, 18 G) mice were mechanically ventilated (at 150 breaths/min, with a tidal volume of 10 ml/kg, positive end-expiratory pressure of 3 cmH2O). (2) in unrestrained animals by barometric plethysmography using a whole-body plethysmograph (WBP) and analyzed using software of Life Science Suite P3 Analysis Modules (Gould, LDS Test and Measurement LLC, Valley View, OH, USA). Mice were placed into the main chamber of the WBP, and the baseline enhanced pause (Penh) value was determined. […] Twenty-four hours after Penh determination, these mice were anesthetized with pentobarbital (50 mg/kg, i.p.), and the lungs were lavaged via a tracheal tube with PBS (1 × 1.0 ml, 37°C). After lavage, blood was collected from the jugular vein and allowed to sit so that it would coagulate. The collected bronchoalveolar lavage fluid (BALF) and coagulated blood were respectively centrifuged at 630 g for 7 min and at 3700 g for 10 min at 4°C. After centrifugation, the BALF and serum supernatants were stored at -20°C until determination of cytokines, including interleukin (IL)-2, IL-4, IL-5, tumor necrosis factor (TNF)-α, and interferon (IFN)-γ by flow cytometric methods using mouse T helper (Th)1/Th2 cytokine CBA kits, and of total immunoglobulin (Ig)E or IgG2a using ELISA kits (Pharmingen, San Diego, CA, USA) according to the respective recommendations of the manufacturers. OVA-specific IgE was measured as described previously. Wells were coated with 100 μl of OVA (20 μg/ml) instead of the capture antibody. Levels are expressed in arbitrary units, where 1 arbitrary unit equals the optical density of the sample divided by the optical density of unchallenged mouse serum or BALF (standard). The BALF pellet was resuspended in ACK lysing buffer (1.658 g NH4Cl, 0.2 g KHCO3 and 1.44 mg EDTA in 200 ml of water) to lyse the residual erythrocytes in each sample. The number of inflammatory cells was counted using a hemocytometer (Hausser Scientific, Horsham, PA, USA). Cytospun slides were stained and differentiated in a blinded fashion by counting at least 100 cells under light microscopy. All undetectable data (< 1 pg/ml) of cytokines were taken as 0 pg/ml.

COc1cc(O)c2c(c1)O[C@H](c1ccc(OC)c(OC)c1)CC2=O [HDME, hesperetin-7,3'-O-dimethylether]
effect on level of IFN-γ in BALF (30 μmol/kg p.o.): enhanced
effect on increase in level of IL-2 in BALF (3~30 μmol/kg p.o.): significantly suppressed
effect on increase in level of IL-4 in BALF (3~30 μmol/kg p.o.): significantly suppressed
effect on increase in level of IL-5 in BALF (3~30 μmol/kg p.o.): significantly suppressed
effect on increase in level of TNF-α in BALF (3~30 μmol/kg p.o.): significantly suppressed
